Source: patent publication US12391671B2, “Allosteric EGFR inhibitors and methods of use thereof” (Dana-Farber Cancer Institute, Inc., priority 2019, dated 2025)
Counter-ions that a name gives are not always drawn. Like-named read-outs stand apart in the source and are kept apart here.

Columns and labels:
EGFR L858R = EGFR L858R (Homo sapiens (Human), UniProt P00533, L858R); assay: HTRF-based EGFR biochemical assay (L858R); conditions: 100 μM ATP, enzyme 0.1 nM
Experimental: (§1) Example 25: HTRF-Based EGFR Biochemical Assays
(§2) EGFR biochemical activity measurements were carried out using the homogeneous time-resolved fluorescence (HTRF) assay (Cisbio), inhibitors and DMSO normalizations were first dispensed to empty black low-volume 384-well plates (Corning) with 0300 digital liquid dispenser (HP). All reactions were carried out at room temperature and solutions were added to plates with a Multidrop Combi Reagent Dispenser (ThermoFisher). The reaction mixture (10 μL final volume) contained 1 μM tyrosine kinase peptide-biotin substrate and mutant EGFR in a reaction buffer (50 mM HEPES pH 7.0, 5 mM MgCl2, 1 mM MnCl2, 0.01% BSA, 2 mM TCEP, 0.1 mM NaVO4). Enzyme concentrations were adjusted to accommodate varying kinase activities (L858R 0.1 nM, L858R/T790M 0.02 nM). Enzyme reaction solution (2× concentrations, 5 μL) was added to 384-well plates containing compounds and incubated for 30 mins. Enzyme reactions were initiated with the addition of 5 μL of ATP to a final concentration of 100 μM and reacted for 20 mins. Reactions were quenched with the addition of 10 μL of phospho-tyrosine antibody-Europium(III) cryptate (1-to-180 volume ratio) and Streptavidin-XL665 (46.7 nM) in EDTA-containing detection buffer, then incubated at room temperature for 1 hour, and read with a PHERAstar plate reader (excitation=337 nm, emission=620 nm and 665 nm).

EGFR L858R/T790M = EGFR L858R/T790M (Homo sapiens (Human), UniProt P00533, L858R/T790M); assay: HTRF-based EGFR biochemical assay (L858R/T790M); conditions: 100 μM ATP, enzyme 0.02 nM
Experimental: as §1, §2

[1] = tested on: EGFR mutant L858R/T790M Ba/F3 cells; assay: Ba/F3 cell proliferation model (Cell Titer Glo), EGFR L858R/T790M; assay type: cell-based, murine; conditions: 72 hours
From the text: Example 26: Ba/F3 Cell Proliferation Models
The EGFR mutant L858R and L858R/T790M Ba/F3 cells have been previously described (Zhou, W., et al. Nature 462, 2009, 1070-1074). All cell lines were maintained in RPM 1640 (Cellgro; Mediatech Inc., Herndon. CA) supplemented with 10% FBS, 100 units/mL penicillin, 100 units/mL streptomycin. The EGFR I941R mutation was introduced via site directed mutagenesis using the Quick Change Site-Directed Mutagenesis kit (Stratagene; La Jolla, CA) according to the manufacturer's instructions. All constructs were confirmed by DNA sequencing. The constructs were shuttled into the retroviral vector JP1540 using the Cre-recombination system (Agilent Technologies, Santa Clara, CA). Ba/F3 cells were then infected with retrovirus per standard protocols, as described previously (Zhou, et al, Nature 2009). Stable clones were obtained by selection in puromycin (2 μg/ml).
Growth and inhibition of growth was assessed by the Cell Titer Glo® assay (Promega, Madison, WI) and was performed according to the manufacturer's instructions. The Cell Titer Glo® assay is a luminescence-based method used to determine the number of viable cells based on quantitation of the ATP present, which is directly proportional to the amount of metabolically active cells present. Ba/F3 cells of different EGFR genotypes were exposed to compounds as a single agent or in combination with 1 μg/mL cetuximab for 72 hours and the number of cells used per experiment was determined empirically as has been previously established (Zhou, et al., Nature 2009). All experimental points were set up in triplicates in 384-well plates and all experiments were repeated at least three times. […] The curves were fitted using a non-linear regression model with a sigmoidal dose response.

[2] = Mus musculus, BaF3, single agent, read-out: Cell IC50 BaF3 EGFR L858R/T790M
[3] = in combination with 1 μg/mL cetuximab, read-out: Cell IC50 BaF3 EGFR L858R/T790M (+cetux.)

Chain of EGFR L858R/T790M (P00533 25-1210 T790M/L858R): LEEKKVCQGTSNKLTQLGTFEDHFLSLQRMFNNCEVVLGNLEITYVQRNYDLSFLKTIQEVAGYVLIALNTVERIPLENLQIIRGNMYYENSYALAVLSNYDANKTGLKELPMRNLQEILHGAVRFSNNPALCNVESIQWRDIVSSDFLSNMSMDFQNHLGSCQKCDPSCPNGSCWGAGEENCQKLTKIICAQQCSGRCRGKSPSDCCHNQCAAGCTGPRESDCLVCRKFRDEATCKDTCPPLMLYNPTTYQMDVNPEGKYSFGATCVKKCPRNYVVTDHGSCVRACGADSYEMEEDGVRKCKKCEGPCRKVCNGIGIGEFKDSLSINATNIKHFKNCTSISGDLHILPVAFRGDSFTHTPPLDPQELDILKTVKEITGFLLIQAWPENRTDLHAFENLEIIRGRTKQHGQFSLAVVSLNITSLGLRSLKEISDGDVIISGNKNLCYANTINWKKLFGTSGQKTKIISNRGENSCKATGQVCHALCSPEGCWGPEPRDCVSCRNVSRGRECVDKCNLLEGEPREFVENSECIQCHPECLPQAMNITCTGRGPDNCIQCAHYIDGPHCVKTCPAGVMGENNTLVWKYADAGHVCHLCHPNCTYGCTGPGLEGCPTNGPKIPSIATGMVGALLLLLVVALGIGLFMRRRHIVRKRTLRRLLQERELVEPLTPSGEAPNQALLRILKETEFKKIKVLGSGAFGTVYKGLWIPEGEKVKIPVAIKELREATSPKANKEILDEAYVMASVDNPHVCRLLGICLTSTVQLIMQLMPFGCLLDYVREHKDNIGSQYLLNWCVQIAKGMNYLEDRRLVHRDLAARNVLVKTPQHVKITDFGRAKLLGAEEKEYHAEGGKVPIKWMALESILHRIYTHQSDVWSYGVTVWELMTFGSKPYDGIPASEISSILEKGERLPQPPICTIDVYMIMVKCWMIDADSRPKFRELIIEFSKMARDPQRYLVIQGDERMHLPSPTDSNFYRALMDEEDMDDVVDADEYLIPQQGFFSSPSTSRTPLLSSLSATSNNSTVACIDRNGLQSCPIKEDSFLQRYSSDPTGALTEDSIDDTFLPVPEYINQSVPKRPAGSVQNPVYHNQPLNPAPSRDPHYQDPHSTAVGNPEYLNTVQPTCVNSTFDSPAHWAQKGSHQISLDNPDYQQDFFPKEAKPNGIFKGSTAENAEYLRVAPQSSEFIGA
Chain of EGFR L858R (P00533 25-1210 L858R): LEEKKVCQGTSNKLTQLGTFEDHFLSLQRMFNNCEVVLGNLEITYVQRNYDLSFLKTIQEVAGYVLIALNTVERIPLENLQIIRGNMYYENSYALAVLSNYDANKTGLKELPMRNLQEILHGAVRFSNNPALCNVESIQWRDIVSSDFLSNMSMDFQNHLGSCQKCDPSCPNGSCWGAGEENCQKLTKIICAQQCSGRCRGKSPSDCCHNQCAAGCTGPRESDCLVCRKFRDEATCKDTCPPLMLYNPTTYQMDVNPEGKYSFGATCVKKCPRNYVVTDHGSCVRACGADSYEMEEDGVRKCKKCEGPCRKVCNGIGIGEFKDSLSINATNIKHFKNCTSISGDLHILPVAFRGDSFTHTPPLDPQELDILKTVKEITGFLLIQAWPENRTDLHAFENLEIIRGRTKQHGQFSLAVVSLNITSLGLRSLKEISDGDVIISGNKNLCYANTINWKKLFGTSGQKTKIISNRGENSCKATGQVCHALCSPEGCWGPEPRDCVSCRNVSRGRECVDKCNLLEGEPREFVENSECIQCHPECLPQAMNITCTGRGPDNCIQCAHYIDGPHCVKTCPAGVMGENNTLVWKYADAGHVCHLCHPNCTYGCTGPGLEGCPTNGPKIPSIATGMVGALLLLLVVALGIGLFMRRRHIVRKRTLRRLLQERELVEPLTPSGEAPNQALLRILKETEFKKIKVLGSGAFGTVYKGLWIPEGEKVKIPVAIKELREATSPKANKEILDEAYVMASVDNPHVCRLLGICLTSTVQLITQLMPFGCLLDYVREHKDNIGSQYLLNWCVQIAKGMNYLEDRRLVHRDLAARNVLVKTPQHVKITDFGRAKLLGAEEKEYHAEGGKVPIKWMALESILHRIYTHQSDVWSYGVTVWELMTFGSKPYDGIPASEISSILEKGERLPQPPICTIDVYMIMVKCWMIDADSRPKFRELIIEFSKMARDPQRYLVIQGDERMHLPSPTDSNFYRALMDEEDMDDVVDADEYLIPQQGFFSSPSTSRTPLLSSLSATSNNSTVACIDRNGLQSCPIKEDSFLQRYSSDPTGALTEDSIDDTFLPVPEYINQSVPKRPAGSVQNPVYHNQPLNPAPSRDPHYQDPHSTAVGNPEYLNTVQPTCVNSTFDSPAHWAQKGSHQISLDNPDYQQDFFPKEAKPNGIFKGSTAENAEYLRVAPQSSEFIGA

Structure (SMILES): CN1CCC(c2ccc(-c3ccc4c(c3)C(=O)N(C(c3nc5cnccc5[nH]3)c3cc(F)ccc3O)C4)cc2)CC1 (stereo not drawn) [Compound 015, 2-[(5-Fluoro-2-hydroxy-phenyl)-(1H-imidazo[4,5-c]pyridin-2-yl)methyl]-6-[4-(1-methyl-4-piperidyl)phenyl]isoindolin-1-one;hydrochloride]
- IC50 (EGFR L858R): 15 nM
- IC50 (EGFR L858R/T790M): 2 nM
- IC50 [1, 2]: 1100 nM
- IC50 [1, 3]: 20 nM

Structure (SMILES): CN1CCC(F)(c2ccc(-c3ccc4c(c3)C(=O)N(C(c3nc5ccccc5[nH]3)c3cc(F)ccc3O)C4)cc2)CC1 (stereo not drawn) [Compound 016, 2-[1H-Benzimidazol-2-yl-(5-fluoro-2-hydroxy-phenyl)methyl]-6-[4-(4-fluoro-1-methyl-4-piperidyl)phenyl]isoindolin-1-one; hydrochloride]
- IC50 (EGFR L858R): 3 nM
- IC50 (EGFR L858R/T790M): 0.7 nM
- IC50 [1, 2]: 590 nM
- IC50 [1, 3]: 10 nM

Structure (SMILES): CN1CCC(c2ccc(-c3ccc4c(c3)C(=O)N(C(c3nc5ccccc5[nH]3)c3cc(F)ccc3O)C4)cc2F)CC1 (stereo not drawn) [Compound 017, 2-[1H-Benzimidazol-2-yl-(5-fluoro-2-hydroxy-phenyl)methyl]-6-[3-fluoro-4-(1-methyl-4-piperidyl)phenyl]isoindolin-1-one; hydrochloride]
- IC50 (EGFR L858R): 1 nM
- IC50 (EGFR L858R/T790M): 0.4 nM
- IC50 [1, 2]: 260 nM
- IC50 [1, 3]: 6 nM

Structure (SMILES): CN1CCC(c2ccc(-c3ccc4c(c3)C(=O)N(C(c3nc5cncnc5[nH]3)c3cc(F)ccc3O)C4)cc2)CC1 (stereo not drawn) [Compound 018, 2-[(5-Fluoro-2-hydroxy-phenyl)-(9H-purin-8-yl)methyl]-6-[4-(1-methyl-4-piperidyl)phenyl]isoindoiin-1-one; hydrochloride]
- IC50 (EGFR L858R): 9 nM
- IC50 (EGFR L858R/T790M): 5 nM
- IC50 [1, 2]: 3490 nM
- IC50 [1, 3]: 20 nM

Structure (SMILES): CN1CCC(c2ccc(-c3ccc4c(c3)C(=O)N(C(c3nc5nccnc5[nH]3)c3cc(F)ccc3O)C4)cc2)CC1 (stereo not drawn) [Compound 019, 2-[(5-Fluoro-2-hydroxy-phenyl)-(1H-imidazo[4,5-b]pyrazin-2-yl)methyl]-6-[4-(1-methyl-4-piperidyl)phenyl]isoindolin-1-one; hydrochloride]
- IC50 (EGFR L858R): 4 nM
- IC50 (EGFR L858R/T790M): 1 nM
- IC50 [1, 2]: 1870 nM
- IC50 [1, 3]: 10 nM

Structure (SMILES): CN1CCC(c2ccc(-c3ccc4c(c3)C(=O)N(C(c3cccc(F)c3)c3nc5cccnc5[nH]3)C4)cc2)CC1 (stereo not drawn) [Compound 025]
- IC50 (EGFR L858R): 150 nM
- IC50 (EGFR L858R/T790M): 11 nM
- IC50 [1, 2]: 3050 nM
- IC50 [1, 3]: 180 nM

Structure (SMILES): CN1CCC(c2ccc(-c3ccc4c(c3)C(=O)N(C(c3cccc(F)c3)c3nc5ccccc5[nH]3)C4)cc2)CC1 (stereo not drawn) [Compound 026, 2-[1H-Benzimidazol-2-yl-(3-fluorophenyl)methyl]-6-[4-(1-methyl-4-piperidyl)phenyl]isoindolin-1-one]
- IC50 (EGFR L858R): 26 nM
- IC50 (EGFR L858R/T790M): 7 nM
- IC50 [1, 2]: 2280 nM
- IC50 [1, 3]: 80 nM

Structure (SMILES): CN1CCC(c2ccc(-c3ccc4c(n3)C(=O)N(C(c3nc5ccccc5[nH]3)c3cc(F)ccc3O)C4)cc2)CC1 (stereo not drawn) [Compound 028, 6-[1H-Benzimidazol-2-yl-(5-fluoro-2-hydroxy-phenyl)methyl]-2-[4-(1-methyl-4-piperidyl)phenyl]-5H-pyrrolo[3,4-b]pyridin-7-one]
- IC50 (EGFR L858R): 2 nM
- IC50 (EGFR L858R/T790M): 0.3 nM
- IC50 [1, 2]: 1360 nM
- IC50 [1, 3]: 30 nM

Structure (SMILES): CN1CCC(c2ccc(-c3ccc4c(c3)C(=O)N(C(c3nc5ccccc5[nH]3)c3cc(F)ccc3O)C4)c(F)c2)CC1 (stereo not drawn) [Compound 029, 2-[1H-benzimidazol-2-yl-(5-fluoro-2-hydroxy-phenyl)-methyl]-6-[2-fluoro-4-(1-methyl-4-piperidyl)phenyl]isoindolin-1-one; formic acid]
- IC50 (EGFR L858R): 2 nM
- IC50 (EGFR L858R/T790M): 0.6 nM
- IC50 [1, 2]: 760 nM
- IC50 [1, 3]: 20 nM

Structure (SMILES): CN1CCC(c2ccc(-c3ccc4c(c3)C(=O)N(C(c3nc5cccnc5[nH]3)c3n[nH]c5c3CCC5)C4)cc2)CC1 (stereo not drawn) [Compound 031, 2-[1H-Imidazo[4,5-b]pyridin-2-yl(1,4,5,6-tetrahydrocyclopenta[c]pyrazol-3-yl)methyl]-6-[4-(1-methyl-4-piperidy)phenyl]isoindolin-1-one]
- IC50 (EGFR L858R): 45 nM
- IC50 (EGFR L858R/T790M): 8 nM
- IC50 [1, 2]: > 10000 nM
- IC50 [1, 3]: 370 nM

Structure (SMILES): CN1CCC(c2ccc(-c3ccc4c(c3)C(=O)N(C(c3nc5ccccc5[nH]3)c3n[nH]c5c3CCC5)C4)cc2)CC1 (stereo not drawn) [Compound 033, 2-[1H-Benzimidazol-2-yl(1,4,5,6-tetrahydrocyclopenta[c]pyrazol-3-yl)methyl]-6-[4-(1-methyl-4-piperidyl)phenyl]isoindolin-1-one]
- IC50 (EGFR L858R): 24 nM
- IC50 (EGFR L858R/T790M): 6 nM
- IC50 [1, 2]: 5230 nM
- IC50 [1, 3]: 340 nM

Structure (SMILES): COc1ccc(F)cc1C(c1nc2ccccc2[nH]1)n1cc2ccc(-c3ccc(C4CCN(C)CC4)cc3)c(F)c2n1 (stereo not drawn) [Compound 035, 2-[1H-benzimidazol-2-yl-(5-fluoro-2-methoxy-phenyl)methyl]-7-fluoro-6-[4-(1-methyl-4-piperidyl)phenyl]indazole]
- IC50 (EGFR L858R): 507 nM
- IC50 (EGFR L858R/T790M): 42 nM
- IC50 [1, 2]: 3600 nM
- IC50 [1, 3]: 530 nM

Structure (SMILES): [2H]C(c1nc2ccccc2[nH]1)(c1cc(F)ccc1O)N1Cc2ccc(-c3ccc(C4CCN(C)CC4)cc3)cc2C1=O (stereo not drawn) [Compound 036, 2-((1H-benzo[d]imidazol-2-yl)(5-fluoro-2-hydroxyphenyl)methyl-d)-6-(4-(1-methylpiperidin-4-yl)phenyl)isoindolin-1-one]
- IC50 (EGFR L858R): 2.6 nM
- IC50 (EGFR L858R/T790M): 0.7 nM
- IC50 [1, 2]: 170 nM
- IC50 [1, 3]: 7 nM

Structure (SMILES): [2H]C1([2H])c2ccc(-c3ccc(C4CCN(C)CC4)cc3)cc2C(=O)N1C([2H])(c1nc2ccccc2[nH]1)c1cc(F)ccc1O (stereo not drawn) [Compound 039, 2-((1H-Benzo[d]imidazol-2-yl)(5-fluoro-2-hydroxyphenyl)methyl-d)-6-(4-(1-methylpiperidin-4-yl)phenyl)isoindolin-1-one-3,3-d2]
- IC50 (EGFR L858R): 2.9 nM
- IC50 (EGFR L858R/T790M): 0.5 nM
- IC50 [1, 2]: 280 nM
- IC50 [1, 3]: 14 nM

Structure (SMILES): CN(C)CCOc1ccc(-c2ccc3c(c2)C(=O)N(C(c2nc4ccccc4[nH]2)c2cc(F)ccc2O)C3)cc1 (stereo not drawn) [Compound 040, 2-[1H-benzimidazol-2-yl-(5-fluoro-2-hydroxy-phenyl)methyl]-6-[4-[2-(dimethyl-amino)ethoxy]phenyl]isoindolin-1-one;hydrochloride]
- IC50 (EGFR L858R): 7 nM
- IC50 (EGFR L858R/T790M): 2 nM
- IC50 [1, 2]: 1570 nM
- IC50 [1, 3]: 10 nM

Structure (SMILES): CN(C)CCN(C)c1ccc(-c2ccc3c(c2)C(=O)N(C(c2nc4ccccc4[nH]2)c2cc(F)ccc2O)C3)cc1 (stereo not drawn) [Compound 041, 2-[1H-benzimidazol-2-yl-(5-fluoro-2-hydroxy-phenyl)-methyl]-6-[4-[2-(dimethylamino)-ethyl-methyl-amino]phenyl]-isoindolin-1-one; hydrochloride]
- IC50 (EGFR L858R): 5 nM
- IC50 (EGFR L858R/T790M): 2 nM
- IC50 [1, 2]: 950 nM
- IC50 [1, 3]: 20 nM

Structure (SMILES): CN1CCC(c2ccc(-c3ccc4c(c3)C(=O)N(C(c3nc5ccccc5[nH]3)c3cccc(F)c3O)C4)cc2)CC1 (stereo not drawn) [Compound 042, 2-[1H-benzimidazol-2-yl-(3-fluoro-2-hydroxy-phenyl)-methyl]-6-[4-(1-methyl-4-piperidyl)phenyl]isoindolin-1-one; dihydrochloride]
- IC50 (EGFR L858R): 31 nM
- IC50 (EGFR L858R/T790M): 13 nM
- IC50 [1, 2]: 4000 nM
- IC50 [1, 3]: 240 nM

Structure (SMILES): CN1CCC(c2ccc(-c3ccc4c(c3)C(=O)N(C(c3nc5ccccc5[nH]3)c3cc(Cl)ccc3O)C4)cc2)CC1 (stereo not drawn) [Compound 044, 2-[1H-benzimidazol-2-yl-(5-chloro-2-hydroxy-phenyl)-methyl]-6-[4-(1-methyl-4-piperidyl)phenyl]isoindolin-1-one; hydrochloride]
- IC50 (EGFR L858R): 6 nM
- IC50 (EGFR L858R/T790M): 2 nM
- IC50 [1, 2]: 1500 nM
- IC50 [1, 3]: 50 nM
